Consider one compound from ChEMBL document CHEMBL4725449, “Brain Penetrable Inhibitors of Ceramide Galactosyltransferase for the Treatment of Lysosomal Storage Disorders” (ACS Med Chem Lett, 2020).

By IC50 is commonly meant the concentration that gives 50% inhibition. The term half-life denotes the time in which the quantity being followed falls by half. The low end stands for rapid decline, the high end for slow decline. In general, AUC(0-t) refers to the area under the concentration-time curve up to a stated or last time point. Higher therefore signals more exposure. In general, inhibition in vivo refers to the drop in the measured response relative to a control, in per cent. The term ED50 denotes the dose at which the effect has come halfway, by size or by number of responders. Broadly, the bioavailability is dose-corrected exposure relative to a reference, in per cent. A higher bioavailability goes with good availability.

Structures are written as SMILES.

The target of series [1] is T1, 2-hydroxyacylsphingosine 1-beta-galactosyltransferase (Homo sapiens, UniProt Q16880).
T1 sequence (Q16880 whole entry): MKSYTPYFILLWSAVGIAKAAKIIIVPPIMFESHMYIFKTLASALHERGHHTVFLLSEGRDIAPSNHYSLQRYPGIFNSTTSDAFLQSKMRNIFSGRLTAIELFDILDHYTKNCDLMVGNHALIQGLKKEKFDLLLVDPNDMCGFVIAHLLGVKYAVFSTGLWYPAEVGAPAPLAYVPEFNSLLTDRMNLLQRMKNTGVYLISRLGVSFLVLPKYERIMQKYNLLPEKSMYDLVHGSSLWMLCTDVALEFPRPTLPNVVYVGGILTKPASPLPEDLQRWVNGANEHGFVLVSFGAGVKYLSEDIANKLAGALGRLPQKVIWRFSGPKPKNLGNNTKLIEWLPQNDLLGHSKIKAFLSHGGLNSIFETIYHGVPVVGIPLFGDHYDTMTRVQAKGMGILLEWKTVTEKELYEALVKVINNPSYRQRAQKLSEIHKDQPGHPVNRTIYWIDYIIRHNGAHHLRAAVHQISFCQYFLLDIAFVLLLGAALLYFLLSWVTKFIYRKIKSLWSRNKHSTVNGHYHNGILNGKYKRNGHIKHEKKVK
Nature of the series: Inhibition of UGT8 in human OE19 cells assessed as redcution in GalCer accumulation measured after 72 hrs by LC-MS/MS analysis. Type of series: cell-based.

Series [2] is described as follows: Half life in Sprague-Dawley rat at 1 mg/kg, iv. Type of series: ADME, organism-based. The conditions noted are these: in vivo.
Series [3] in a line: AUC (0 to last) in C57BL/6 mouse at 3 mg/kg, po. Format: ADME, organism-based. The conditions noted are these: in vivo. On the set-up: time 0 - last, route oral, dose 3 mg/kg.
A short description of series [4]: In vivo inhibition of GalCer de novo synthesis in adult C57BL/6 mouse kidney assessed as reduction in [13C] galactose incorporation into GalCer at 30 mg/kg, po via gavage treated with compound for 1 hr prior to intraperitoneal injection of [13C] galactose measured after 5 hrs of compound administration relative to control. Format: functional.
Series [5] has as its target T1, 2-hydroxyacylsphingosine 1-beta-galactosyltransferase. The experiment in a line: Inhibition of UGT8 in human OE19 cells assessed as redcution in SFT accumulation measured after 72 hrs by LC-MS/MS analysis. Type of series: cell-based.
Series [6] can be described thus: In vivo inhibition of SFT de novo synthesis in po dosed PN14 to PN21 days C57BL/6 mouse brain assessed as reduction in [13C] galactose incorporation into SFT administered twice for 2 days and single dose at day 3 treated 1 hr prior to intraperitoneal injection of [13C] galactose measured after 5 hrs of last dose. Format: functional. As to conditions: C57BL/6, 72 h, time 3 day.

The nature of series [7]: In vivo inhibition of SFT de novo synthesis in PN14 to PN21 days C57BL/6 mouse brain assessed as reduction in [13C] galactose incorporation into SFT at 10 mg/kg, po bid for 2 days and single dose at day 3 treated 1 hr prior to intraperitoneal injection of [13C] galactose measured after 5 hrs of last dose relative to control. Format: functional. The conditions noted are these: C57BL/6, 72 h, time 3 day.

Series [8] in a line: Drug uptake in C57BL/6 mouse brain at 3 mg/kg, iv measured at 1 hr. Type of series: ADME, organism-based. The conditions noted are these: read-out: Drug uptake.
Series [9] is described as follows: Volume of distribution at steady state in C57BL/6 mouse at 1 mg/kg, iv. Type of series: ADME, organism-based. The conditions noted are these: in vivo, read-out: Vdss.
Series [10] is described as follows: AUC (0 to last) in Beagle dog at 3 mg/kg, po. Format: ADME, organism-based, Canis lupus familiaris. The arrangement: time 0 - last, route oral, dose 3 mg/kg. The conditions noted are these: in vivo.
Series [11] concerns the target T2, UDP-glucuronosyltransferase 2B15 (Homo sapiens, UniProt P54855).
T2 sequence (P54855 whole entry): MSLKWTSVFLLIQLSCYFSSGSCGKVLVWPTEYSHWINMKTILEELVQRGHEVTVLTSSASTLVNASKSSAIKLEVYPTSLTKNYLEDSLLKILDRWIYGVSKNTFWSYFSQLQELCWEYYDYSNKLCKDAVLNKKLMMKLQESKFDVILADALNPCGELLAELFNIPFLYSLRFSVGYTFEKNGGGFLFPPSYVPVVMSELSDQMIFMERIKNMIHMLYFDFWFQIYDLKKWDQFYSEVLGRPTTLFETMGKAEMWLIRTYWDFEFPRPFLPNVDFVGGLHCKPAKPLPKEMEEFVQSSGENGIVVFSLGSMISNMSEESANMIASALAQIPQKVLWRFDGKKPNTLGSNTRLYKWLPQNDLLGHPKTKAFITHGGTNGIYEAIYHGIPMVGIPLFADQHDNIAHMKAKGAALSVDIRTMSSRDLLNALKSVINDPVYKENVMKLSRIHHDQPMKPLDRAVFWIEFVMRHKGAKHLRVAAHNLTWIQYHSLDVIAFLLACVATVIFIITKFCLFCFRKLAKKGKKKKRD
Nature of the series: Inhibition of UGT2B15 (unknown origin). Format: ADME.

Series [12] can be described thus: In vivo inhibition of SFT de novo synthesis in adult C57BL/6 mouse kidney assessed as reduction in [13C] galactose incorporation into SFT at 10 mg/kg, po via gavage treated with compound for 1 hr prior to intraperitoneal injection of [13C] galactose measured after 5 hrs of compound administration relative to control. Format: functional.
Series [13] deals with T3, UDP-glucuronosyltransferase 2B7 (Homo sapiens, UniProt P16662).
T3 sequence (P16662 whole entry): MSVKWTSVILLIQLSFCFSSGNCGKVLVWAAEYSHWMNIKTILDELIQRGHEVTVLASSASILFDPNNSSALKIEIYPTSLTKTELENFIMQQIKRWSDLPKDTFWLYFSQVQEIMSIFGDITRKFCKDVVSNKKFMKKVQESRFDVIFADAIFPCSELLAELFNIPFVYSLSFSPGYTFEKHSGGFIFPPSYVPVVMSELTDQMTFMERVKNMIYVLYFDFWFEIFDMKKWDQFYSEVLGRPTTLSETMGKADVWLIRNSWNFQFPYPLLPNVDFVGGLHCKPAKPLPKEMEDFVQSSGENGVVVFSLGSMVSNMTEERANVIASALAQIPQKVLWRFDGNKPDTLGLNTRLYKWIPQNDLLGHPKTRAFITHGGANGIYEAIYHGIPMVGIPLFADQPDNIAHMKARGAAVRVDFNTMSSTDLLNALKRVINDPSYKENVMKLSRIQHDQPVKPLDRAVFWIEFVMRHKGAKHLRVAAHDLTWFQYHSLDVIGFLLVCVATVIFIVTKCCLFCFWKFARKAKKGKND
Nature of the series: Inhibition of UGT2B7 (unknown origin). Type of series: ADME.

The nature of series [14]: In vivo inhibition of SFT de novo synthesis in adult C57BL/6 mouse kidney assessed as reduction in [13C] galactose incorporation into SFT at 30 mg/kg, po via gavage treated with compound for 1 hr prior to intraperitoneal injection of [13C] galactose measured after 5 hrs of compound administration relative to control. Format: functional.
Series [15] can be described thus: Oral bioavailability in Sprague-Dawley rat at 3 mg/kg. Format: ADME, organism-based. The conditions noted are these: in vivo.
A short description of series [16]: (§1) In vivo inhibition of GalCer de novo synthesis in po dosed adult C57BL/6 mouse kidney assessed as reduction in [13C] galactose incorporation into GalCer treated with compound for 1 hr prior to intraperitoneal injection of [13C] galactose measured after 5 hrs of compound administration. Format: functional.
In another series the test system is Mus musculus. The description is as §1. Format: functional.

With `CNC(=O)c1csc2c(C(F)(F)F)cc(N3CCC(OC(=O)N[C@@H](C)COC(F)(F)F)CC3)nc12`, the IC50 in series [1] is 0.2 nM; in series [5], 0.2 nM; in series [11], more than 10000 nM; in series [13], more than 10000 nM. For the same compound, the half-life in series [2] is 4.3 h. In addition, the AUC(0-t) worked out at 784 ng·h/mL in series [3] and 4190 ng·h/mL in series [10]. For the same compound, the inhibition in vivo at 30 mg/kg turned out to be 90% in series [4] and 99% in [14]. Besides, the 50% effective dose (ED50) in series [6] is less than 3 mg/kg; in series [16], 1 mg/kg. Also, the inhibition in vivo at 10 mg/kg in series [7] was determined as 97%; in [12], 95%. For the same compound, the concentration at 1 h in [8] worked out at 148 ng/mL. In addition, in [9], the Vd amounted to 1.64 L/kg. The compound also yielded a bioavailability in series [15] of 40%. Besides, the inhibition result with Mus musculus is “Dose-dependent effect”.
